Laboratory results published in US20260027131A1, “PRODRUGS, PRODRUG COMPOSITIONS AND RELATED METHODS” (Praesidia Biotherapeutics Inc., priority 2022, published 2026).
Where “and” joins values, the source holds several entries; their conditions need not be identical. Equal values may be shown once. Read-outs that look alike come from different tables or passages of the source.

What was measured:
[1] = Chemical stability at pH 4.5 and pH 7.4 in PBS; type: physicochemical; details: for Chemical Stability, pH 4.5: PBS pH 4.5, 37° C.; for Chemical Stability, pH 4.5 / Chemical Stability, pH 7.4: 5 μM, up to 240 min; for Chemical Stability, pH 7.4: PBS pH 7.4, 37° C.
Experimental: The assay was performed in duplicate. […] Samples were incubated at 37° C. at 600 rpm.

[2] = Pharmacokinetic studies in rats: plasma and lung; details: rat; for Conc in Prodrug in lung / Conc of Prodrug in plasma: single i.v., 2 mg/kg dexamethasone equivalent
Experimental: (§1) Six to eight weeks old Sprague-Dawley rats were procured from a qualified provider. Test compounds were introduced in rats by a single intravenous administration. […] Blood samples (0.1, 0.2 or 0.5 mL) were collected with a 1 mL syringe containing anticoagulants K2EDTA. Blood samples were centrifuged to obtain plasma for analysis. […] After collection at each time point, lung samples were frozen at −75° C. Prior to analysis, a portion of lung sample was weighed and homogenized with phosphate buffer saline. […] Data analysis and pharmacokinetic parameters were generated using WinNonlin software.

[3] = Metabolic stability in rat liver microsomes; type: in vitro ADME; details: 1 μM
Experimental: Rat liver microsomes were obtained from qualified vendors and metabolic stability of the test compound was determined at 1 μM. The compound was incubated at 37° C. with 0.5 mg microsome/mL in the buffer in the presence of 1 mM NADPH. Aliquots of 50 μL were taken from the reaction solution at 0, 15, 30, 45 and 60 minutes. […] All samples were analyzed in duplicates.

Rat plasma stability = type: in vitro ADME; details: for half-life at 5 μM: plasma
Experimental: Rat and human plasma were obtained from qualified vendors. […] The assay was performed in duplicate.

[4] = Permeability study using Caco-2 cell monolayers; details: human, Caco-2, pH 7.4
Experimental: (§2) CaCO-2 cells were cultured, and a monolayer was developed in-house in 96 well-plates over 18 days using standard protocol. The monolayer was tested for the integrity of the cell monolayer before using.
(§3) Test compounds were added to the transwell insert (apical compartment) to determine the rate of drug transport in the apical to basolateral direction. To determine the rate of drug transport in the basolateral to apical direction, the test compound was added to the receiver plate wells (basolateral compartment). Appropriate amount of HBSS (10 mM HEPES, pH 7.4) was added in both compartments for a final volume of 200 μL. The plates were incubated at 37° C. with shaking at 150 rpm on a rotary shaker for 2 hours. At the end of the transport period, 50 μL from the apical and basolateral wells were collected and 4 volume of cold acetonitrile containing internal standards (IS: 100 nM alprazolam, 200 nM labetalol, and 2 μM ketoprofen) was added to each sample to terminate the reaction. The samples were vortexed and centrifuged at 3,800 g for 20 minutes. An aliquot of 150 μL of the supernatant was used for LC/MS/MS analysis. All samples were analyzed in duplicates. Samples were analyzed through LC/MS/MS for estimating the permeability and efflux of the compounds across Caco-2 cell monolayers.

Caco-2 cell monolayers [5] = assay: Permeability study using Caco-2 cell monolayers; details: 2 hours; for Permeability A-B: apical to basolateral; for Permeability B-A: basolateral to apical
Experimental: as §2, §3

[6] = biological target: T1, Glucocorticoid receptor (GR) (Homo sapiens, UniProt P04150); assay: TR-FRET GR competitive binding assay; details: 0.1 μM
T1 sequence (P04150 1-777): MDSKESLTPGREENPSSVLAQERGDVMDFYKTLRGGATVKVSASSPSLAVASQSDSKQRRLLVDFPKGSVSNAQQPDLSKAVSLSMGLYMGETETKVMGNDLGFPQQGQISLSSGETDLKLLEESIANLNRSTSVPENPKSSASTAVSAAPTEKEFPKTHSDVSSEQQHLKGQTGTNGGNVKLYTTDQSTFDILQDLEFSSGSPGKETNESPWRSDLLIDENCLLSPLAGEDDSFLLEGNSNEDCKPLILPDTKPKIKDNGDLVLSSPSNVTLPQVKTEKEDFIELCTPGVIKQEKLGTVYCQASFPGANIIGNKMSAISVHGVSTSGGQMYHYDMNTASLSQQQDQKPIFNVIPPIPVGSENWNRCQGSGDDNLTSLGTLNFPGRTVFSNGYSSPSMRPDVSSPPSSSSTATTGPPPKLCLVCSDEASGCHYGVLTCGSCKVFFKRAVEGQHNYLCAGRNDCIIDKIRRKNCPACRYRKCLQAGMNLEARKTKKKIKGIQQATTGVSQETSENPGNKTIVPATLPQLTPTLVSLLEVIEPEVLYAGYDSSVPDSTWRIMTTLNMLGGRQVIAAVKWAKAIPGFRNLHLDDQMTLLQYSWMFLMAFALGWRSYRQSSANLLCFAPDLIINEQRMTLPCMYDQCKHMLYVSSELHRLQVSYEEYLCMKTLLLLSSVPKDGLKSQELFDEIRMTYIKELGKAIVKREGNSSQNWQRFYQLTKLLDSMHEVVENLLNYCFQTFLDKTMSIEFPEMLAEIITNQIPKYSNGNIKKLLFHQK
Experimental: Glucocorticoid receptor (GR) binding of prodrugs was determined using TR-FRET GR competitive binding assay. Three-point (0.1, 1 and 10 μM) binding was evaluated for each prodrug.

DPP4 = DPP4 (Homo sapiens, UniProt P27487); assay: in vitro; details: recombinant enzyme
DPP4, sequence (P27487 whole entry, species assumed): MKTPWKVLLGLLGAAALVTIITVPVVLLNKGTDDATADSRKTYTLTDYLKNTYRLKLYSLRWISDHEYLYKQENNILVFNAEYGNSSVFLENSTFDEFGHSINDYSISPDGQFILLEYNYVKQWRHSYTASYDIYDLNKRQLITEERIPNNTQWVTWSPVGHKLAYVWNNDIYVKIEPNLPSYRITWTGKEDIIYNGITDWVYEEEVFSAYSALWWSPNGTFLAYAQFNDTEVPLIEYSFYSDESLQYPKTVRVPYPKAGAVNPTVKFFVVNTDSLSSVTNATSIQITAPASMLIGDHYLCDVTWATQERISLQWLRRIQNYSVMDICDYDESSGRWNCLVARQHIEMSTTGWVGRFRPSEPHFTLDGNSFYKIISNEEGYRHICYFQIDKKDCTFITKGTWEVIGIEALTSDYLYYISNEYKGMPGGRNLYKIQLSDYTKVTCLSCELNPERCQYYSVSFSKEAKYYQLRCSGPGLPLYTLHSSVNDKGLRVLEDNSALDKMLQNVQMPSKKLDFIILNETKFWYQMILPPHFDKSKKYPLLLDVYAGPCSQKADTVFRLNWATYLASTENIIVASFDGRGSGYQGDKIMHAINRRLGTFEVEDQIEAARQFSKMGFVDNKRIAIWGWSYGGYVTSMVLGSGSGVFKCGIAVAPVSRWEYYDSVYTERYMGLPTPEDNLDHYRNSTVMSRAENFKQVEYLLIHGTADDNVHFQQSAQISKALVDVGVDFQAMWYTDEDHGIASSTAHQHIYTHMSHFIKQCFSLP
Experimental: Aliquots were withdrawn at 0, 60 and 120 minutes from the reaction mixture and quenched with 20-volumes of cold acetonitrile. […] Glycine-proline p-nitroanilide was used as a positive control for this assay.

in vitro = details: human, plasma
Experimental: (§4) Rat and human plasma were obtained from qualified vendors. 5 μL of 500 μM of the test article solution was added to 495 μL of pre-incubated human or rat plasma to reach a final concentration of 5 μM. The final concentration of organic solvents was not more than 0.5%. The assay was performed in duplicate. The reaction samples were incubated in a 37° C. water bath with shaking at approximately 60 rpm. 50 μL of the reaction samples were collected at 0, 30, 60, 120 and 180 minutes. The reaction was stopped by adding 300 μL of room temperature quench solution (acetonitrile containing internal standards (IS, 200 nM labetalol, 100 nM alprazolam and 2 μM ketoprofen)). The samples were vortexed for 5 minutes followed by centrifugation of the samples at 3,220 g for 30 minutes at room temperature to precipitate the protein. 100 μL of the supernatant was transferred to a new plate and diluted with 100 μL or 200 μL water according to the LC/MS signal response and peak shape. The samples were mixed well and analyzed using LC/MS/MS. The remaining percentage of parent drug versus reaction time was used to calculate the t1/2 value.

Caco-2 cell monolayers [7] = system: Caco-2 cell monolayers
Experimental: as §2, §3

[8] = Sprague-Dawley, rat, in vivo, iv, 2 mg/kg
Experimental: as §1, with “1 ml” for “1 mL”, “of brain” for “of lung”

[9] = rat liver microsomes, NADPH, Table 6, unit not given

Experimental for Human plasma stability: as §4

Row | Compound | Chemical Stability, pH 4.5 [1] | Chemical Stability, pH 7.4 [1] | Chemical stability ([1]; Table 6, pH not stated) | half-life at 5 μM (Human plasma stability) [h] | Conc in Prodrug in lung ([2]; 15 min) | Conc of Prodrug in plasma ([2]; 15 min) | Conc in Prodrug in lung ([2]; 60 min) | Conc of Prodrug in plasma ([2]; 60 min) | Conc in Prodrug in lung ([2]; 360 min) | Conc of Prodrug in plasma ([2]; 360 min) | RLM [3, 9] | Rat plasma stability (Rat plasma stability; Table 6, unit not given) | efflux ratio at 2 h [4] | Permeability A-B (Caco-2 cell monolayers [5]) | Permeability B-A (Caco-2 cell monolayers [5]) | half-life at 5 μM (in vitro) [h] | half-life at 5 μM (Rat plasma stability; rat) [h] | further results
1 | COc1cccc(NC(=O)[C@@H](N)C(C)C)c1C(=O)OCC(=O)[C@@]1(O)[C@H](C)CC2[C@@H]3CCC4=CC(=O)C=C[C@]4(C)[C@@]3(F)[C@@H](O)C[C@@]21C.Cl (stereo partly drawn) [Compound 9] | Yes | Yes | Yes | > 4 | 992 ± 422 | 694 ± 83 | 959 ± 283 | 244 ± 13 | 433 ± 212 | 21 ± 1.5 | 24 | >240 | 279 | A-B = 0.025 × 10^−6, cm/s | B-A = 7 × 10^−6, cm/s |  |  | 
2 | CC(C)[C@H](N)C(=O)Nc1ccccc1C1(C(=O)OCC(=O)[C@@]2(O)[C@H](C)C[C@H]3[C@@H]4CCC5=CC(=O)C=C[C@]5(C)[C@@]4(F)[C@@H](O)C[C@@]32C)CC1.Cl [Compound 25] | Yes | Yes | Yes | > 4 | 3895 ± 368 | 742 ± 96 | 5827 ± 1483 | 367 ± 55 | 1425 ± 509 | 34 ± 10 | 38 | >240 | 170 | A-B = 0.065 × 10^−6, cm/s | B-A = 11 × 10^−6, cm/s |  |  | GR Binding Data [6]: 19%; half-life at 5 μM (Rat plasma stability; rat, read-out: Rat Plasma Stability t½): > 4 h
3 | CC(C)C(N)C(=O)N1CCCC1C(=O)NCC(C)(C)C(C)C(=O)OCC(=O)[C@@]1(O)[C@H](C)C[C@H]2[C@@H]3CCC4=CC(=O)C=C[C@]4(C)[C@@]3(F)[C@@H](O)C[C@@]21C (stereo partly drawn) [Compound 31] |  |  |  |  |  |  |  |  |  |  |  |  |  |  |  | > 4 | > 4 | half-life at 10 μM (DPP4): 2.78 h; Chemical stability [1]: Yes; Lung/Plasma % of Dex ([2]; in vivo, iv): 74% and 100% and 78%; RLM ([3]; rat, microsomes): 63; Rat plasma stability (Rat plasma stability; rat, 5 μM): >240; Permeability A-B (Caco-2 cell monolayers [7]): A-B = 0.065 × 10^−6, cm/s; Permeability B-A (Caco-2 cell monolayers [7]): B-A = 11 × 10^−6, cm/s
4 | CC(C)C(C(=O)N1CCCC1C(=O)N(C)CC(C)(C)C(C)C(=O)OCC(=O)[C@@]1(O)[C@H](C)C[C@H]2[C@@H]3CCC4=CC(=O)C=C[C@]4(C)[C@@]3(F)[C@@H](O)C[C@@]21C)N(C)C (stereo partly drawn) [Compound 33] |  |  |  |  |  |  |  |  |  |  |  |  |  |  |  | > 4 | > 4 | Conc of Dex in plasma [8]: 18.8 ± 7.75; Conc of Prodrug in plasma [8]: 6549 ± 1537
